Assay results reported in US8383638B2, “Aminobenzoquinazolinone M1 receptor positive allosteric modulators” (Merck Sharp & Dohme, priority 2009, dated 2013).

Biological target: T1, acetylcholine muscarinic M1 receptor (Homo sapiens, UniProt P11229)
T1 construct: expressed in transfected cells; host or cells: CHOnfat cells (CHO; also called CHOK1/hM1)
T1 sequence (P11229 1-460): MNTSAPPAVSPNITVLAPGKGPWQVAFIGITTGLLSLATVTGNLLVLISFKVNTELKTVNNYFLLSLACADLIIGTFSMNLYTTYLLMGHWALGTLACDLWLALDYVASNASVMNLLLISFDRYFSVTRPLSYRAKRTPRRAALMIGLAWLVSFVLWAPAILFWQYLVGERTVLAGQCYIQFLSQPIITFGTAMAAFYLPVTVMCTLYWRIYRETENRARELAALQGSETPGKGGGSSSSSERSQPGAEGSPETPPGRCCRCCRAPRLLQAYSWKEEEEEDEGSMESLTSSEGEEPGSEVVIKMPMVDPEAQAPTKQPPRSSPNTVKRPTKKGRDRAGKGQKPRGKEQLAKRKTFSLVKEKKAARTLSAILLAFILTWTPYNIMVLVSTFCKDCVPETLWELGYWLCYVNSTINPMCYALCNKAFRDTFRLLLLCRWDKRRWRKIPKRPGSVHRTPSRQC
Assay: muscarinic FLIPR assay: potentiation of acetylcholine (EC20)-stimulated intracellular Ca2+ in CHOnfat/hM1 cells
Type: cell-based
Conditions: 4 min preincubation, then EC20 acetylcholine (3 nM final), positive allosteric modulator activity, read-out: IP Value (inflection point)
Experimental: The assay studies the effect of one or several concentrations of test compounds on basal or acetylcholine-stimulated Ca^2+ levels using FLIPR.
Compounds are prepared and subjected to a preincubation period of 4 min. Thereafter, a single EC20 concentration of acetylcholine is added to each well (3 nM final). The intracellular Ca^2+ level of each sample is measured and compared to an acetylcholine control to determine any modulatory activity.
Cells: CHOnfat/hM1, hM2, hM3 or hM4 cells are plated 24 hr before the assay at a density of 18,000 cells/well (100 μL) in a 384 well plate. CHOnfat/hM1 and CHOnfat/hM3 Growth Medium: 90% DMEM (Hi Glucose); 10% HI FBS; 2 mM L-glutamine; 0.1 mM NEAA; Pen-Strep; and 1 mg/ml Geneticin, are added. For M2Gqi5CHOnfat and M4Gqi5CHOnfat cells, an additional 600 ug/ml hygromycin is added.
Equipment: 384 well plate, 120 μL addition plate; 96-well Whatman 2 ml Uniplate Incubator, 37° C., 5% CO2; Skatron EMBLA-384 Plate Washer; Multimek Pipetting System; Genesis Freedom 200 System; Mosquito System; Temo Nanoliter Pipetting System; and FLIPR^384 Fluorometric Imaging Plate Reader System are used.
Buffers. Assay Buffer: Hanks Balanced Salt Solution, with 20 mM Hepes, 2.5 mM Probenecid (Sigma P-8761) first dissolved in 1 N NaOH, 1% Bovine Serum Albumin (Sigma A-9647). Dye Loading Buffer: Assay Buffer plus 1% Fetal Bovine Serum and Fluo-4AM/Pluronic Acid Mixture. 2 mM Fluo-4AM ester stock in DMSO (Molecular Probes F-14202) Concentration of 2 μM in buffer for a final concentration of 1 μM in Assay. 20% Pluronic Acid Solution stock, with concentration of 0.04% in Buffer, 0.02% in Assay.
65 μL of 2 mM Fluo-4AM are mixed with 130 μL of 20% Pluronic Acid. The resulting solution and 650 μL FBS is added to the assay buffer for a total volume of 65 mL. Positive Controls: 4-Br-A23187: 10 mM in DMSO; final concentration 10 μM. Acetylcholine: 10 mM in water, working stock at both 20 μM and 30 μM in assay buffer, final concentration of 10 μM. This is used to check the maximum stimulation of the CHOK1/hM1 cells. 20 μM (2×) acetylcholine is added in the preincubation part of the assay, and the 30 μM (3×) stock is added in the second part. (EC20)Acetylcholine: 10 mM in water, working stock of 9 nM (3×), and final concentration in assay is 3 nM. This is used after the preincubation with test compounds. Addition of the EC20 Acetylcholine to each well with a test compound will ascertain any modulator activity. 24 wells contain 3 nM Acetylcholine alone as a control.
Screening Plate Compounds are titrated in 96-well plates (columns 2-11), 100% DMSO, started at a concentration of 15 mM (150× stock concentration), and 3-fold serial dilutions using Genesis Freedom200 System. Four 96-well plates are combined into a 384-well plate using Mosquito Nanoliter Pipetting System by transferring 1 μl of serial diluted compounds to each well, and 1 mM acetylcholine (100× stock concentration) were added as a control. Using Temo, 49 μl assay buffer is added to each well of the 384-well plate right before assay.
In a 96-well Whatman 2 ml Uniplate, 9 nM Acetylcholine (3×) is pipetted into wells corresponding to the screening compounds, and into control wells. The 30 μM acetylcholine control (3×) is added into control wells, and the 3× agonist plate is transferred into a 384 well plate.
Cells are washed three times with 100 μL of buffer, leaving 30 μL of buffer in each well. Using Multimek, 30 μL of Dye Loading Buffer is added into each well and incubated at 37° C., 5% CO2 for up to one hr.
After 60 min, the cells are washed three times with 100 μL of buffer, leaving 30 μL […] of buffer in each well. The cell plate, screening plate, and agonist addition plates are placed on the platform in the FLIPR and the door closed. A signal test to check background fluorescence and basal fluorescence signal is performed. Laser intensity is adjusted if necessary. […]

First: N#CC1(c2ccccn2)CCN(Cc2cc3c(=O)n([C@H]4CCCC[C@@H]4O)cnc3c3ccccc23)CC1 (racemic) [Example 1, rac-1-({3-[(1R,2R)-2-Hydroxycyclohexyl]-4-oxo-3,4-dihydrobenzo[h]quinazolin-6-yl}methyl)-4-pyridin-2-ylpiperidine-4-carbonitrile]
Second: O=c1c2cc(CN3CCC(F)(c4ccccn4)CC3)c3ccccc3c2ncn1[C@H]1CCCC[C@@H]1O [Example 9, 6-[(4-Fluoro-4-pyridin-2-ylpiperidin-1-yl)methyl]-3-[(1S,2S)-2-hydroxycyclohexyl]benzo[h]quinazolin-4(3H)-one]
The EC50 of the first is 2.3-fold lower: 45 nM for the first, 105 nM for the second.

Going from `N#CC1(c2ccccn2)CC[N+]([O-])(Cc2cc3c(=O)n([C@H]4CCCC[C@@H]4O)cnc3c3ccccc23)CC1` (stereo partly drawn) [Example 4, 1-({3-[(1S,2S)-2-Hydroxycyclohexyl]-4-oxo-3,4-dihydrobenzo[h]quinazolin-6-yl}methyl)-4-pyridin-2-ylpiperidine-4-carbonitrile 1-oxide] to `N#CC1(c2ccccn2)CCN(Cc2cc3c(=O)n([C@H]4CCCC[C@@H]4O)cnc3c3ccccc23)CC1` [Example 2, 1-({3-[(1S,2S)-2-Hydroxycyclohexyl]-4-oxo-3,4-dihydrobenzo[h]quinazolin-6-yl}methyl)-4-pyridin-2-ylpiperidine-4-carbonitrile], the EC50 falls from 3880 nM to 18 nM (220-fold).

First: Cc1ccnc(C2(C#N)CCN(Cc3cc4c(=O)n([C@H]5CCCC[C@@H]5O)cnc4c4ccncc34)CC2)c1 [Example 5, 1-({3-[(1S,2S)-2-Hydroxycyclohexyl]-4-oxo-3,4-dihydropyrido[3,4-h]quinazolin-6-yl}methyl)-4-(4-methylpyridin-2-yl)piperidine-4-carbonitrile]
Second: CC1(C#N)CCN(Cc2cc3c(=O)n([C@H]4CCCC[C@@H]4O)cnc3c3ccccc23)CC1 [Example 8, 1-({3-[(1S,2S)-2-Hydroxycyclohexyl]-4-oxo-3,4-dihydrobenzo[h]quinazolin-6-yl}methyl)-4-methylpiperidine-4-carbonitrile]
The EC50 of the first is 16-fold lower: 21 nM for the first, 339 nM for the second.

Compared with `N#CC1(c2ccccn2)CCN(Cc2cc3c(=O)n([C@H]4CCOC[C@@H]4O)cnc3c3ccccc23)CC1` [Example 3], `O=c1c2cc(CN3CCN(c4ccsc4)CC3)c3ccccc3c2ncn1[C@H]1CCCC[C@@H]1O` [Example 6, 3-[(1S,2S)-2-Hydroxycyclohexyl]-6-{[4-(3-thienyl)piperazin-1-yl]methyl}benzo[h]quinazolin-4(3H)-one] is 12-fold higher in EC50: 31 nM for the first, 387 nM for the second. The first is the more potent here.

Molecule `Cn1cc(N2CCN(Cc3cc4c(=O)n([C@H]5CCCC[C@@H]5O)cnc4c4ccccc34)CC2=O)cn1` (racemic) [Example 7, rac-3[(1R,2R)-2-Hydroxycyclohexyl]-6-{[4-(1-methyl-1H-pyrazol-4-yl)-3-oxopiperazin-1-yl]methyl}benzo[h]quinazolin-4(3H)-one] has an EC50 of 44 nM.
